One experiment has as its target human P2X3 receptor (Homo sapiens (Human), UniProt P56373). Description: Intracellular calcium measurement (FLIPR, Fluo-4) of antagonist activity at human P2X3 receptors. In kind it is cell-based. The settings on record: read-out: hP2X3 IC50. The essentials: (§1)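 Cells expressing human P2X3 or P2X2/3, loaded with Fluo-4, preincubated 30 min at 37° C. with compound (1% DMSO final), then challenged with α,β-Me-ATP at its EC80. Peak FLIPR fluorescence over 90 sec gave % response; IC50, maximal inhibition and Hill slope from triplicates.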

The target of the next experiment is human P2X2/3 receptor (Homo sapiens (Human), UniProt P56373+Q9UBL9). Description: Intracellular calcium measurement (FLIPR, Fluo-4) of antagonist activity at human P2X2/3 receptors. In kind it is cell-based. As to conditions: human P2X2/3, FLIPR calcium assay, agonist α,β-Me-ATP; read-out: hP2X2/3 IC50. The essentials:
as §1
On the technique in general: Calcium flux is commonly read through the fluorescence of an indicator in the cells.

The mark [1] stands for this setting: human P2X3, FLIPR calcium assay, agonist α,β-Me-ATP.

Molecules are shown by their SMILES. Read-outs that look alike come from different tables or passages of the source.

human P2X2/3 receptor, sequence (P56373 whole entry): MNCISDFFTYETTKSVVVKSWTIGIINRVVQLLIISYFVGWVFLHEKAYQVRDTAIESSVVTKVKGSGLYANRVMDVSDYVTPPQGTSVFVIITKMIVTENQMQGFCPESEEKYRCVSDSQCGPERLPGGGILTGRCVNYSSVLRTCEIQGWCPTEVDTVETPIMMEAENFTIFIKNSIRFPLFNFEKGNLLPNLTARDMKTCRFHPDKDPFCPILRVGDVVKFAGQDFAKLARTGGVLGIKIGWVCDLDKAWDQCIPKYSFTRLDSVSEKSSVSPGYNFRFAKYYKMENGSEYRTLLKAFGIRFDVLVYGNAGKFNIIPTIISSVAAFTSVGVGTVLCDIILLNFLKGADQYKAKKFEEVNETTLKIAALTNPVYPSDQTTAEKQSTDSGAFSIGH
human P2X2/3 receptor, sequence (Q9UBL9 whole entry): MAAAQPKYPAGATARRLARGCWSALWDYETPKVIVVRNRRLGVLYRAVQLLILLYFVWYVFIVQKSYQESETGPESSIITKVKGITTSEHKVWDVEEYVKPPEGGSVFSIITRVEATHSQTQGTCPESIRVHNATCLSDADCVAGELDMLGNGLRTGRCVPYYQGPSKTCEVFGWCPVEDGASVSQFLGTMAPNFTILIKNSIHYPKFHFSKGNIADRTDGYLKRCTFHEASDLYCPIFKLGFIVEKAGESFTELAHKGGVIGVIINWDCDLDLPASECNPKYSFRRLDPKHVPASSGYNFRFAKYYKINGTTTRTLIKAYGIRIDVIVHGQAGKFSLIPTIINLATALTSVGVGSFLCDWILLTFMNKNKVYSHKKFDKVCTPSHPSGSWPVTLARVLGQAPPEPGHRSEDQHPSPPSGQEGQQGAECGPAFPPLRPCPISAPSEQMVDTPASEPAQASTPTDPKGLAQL
human P2X3 receptor, sequence (P56373 whole entry): as the sequence (P56373 whole entry) above

Take `Cc1cnc(-c2cc(OC3COC3)cc(C(=O)N[C@H](C)c3nnc(C)s3)c2)s1` [Example 50, N-[(1R)-1-(5-Methyl-1,3,4-thiadiazol-2-yl)ethyl]-3-(5-methyl-1,3-thiazol-2-yl)-5-(oxetan-3-yloxy)benzamide]: the values for the IC50 on human P2X3 receptor (setting [1]) and on human P2X2/3 receptor were 77 nM and 982 nM, respectively.
Taken in the same sequence, the figures for `Cc1cnc(CNC(=O)c2cc(OCC3CC3)cc(-c3ncc(C)s3)c2)cn1` [Example 3, 3-(Cyclopropylmethoxy)-N-[(5-methylpyrazin-2-yl)methyl]-5-(5-methyl-1,3-thiazol-2-yl)benzamide] were 26 nM and 1110 nM.
Regarding `Cc1ccc(Oc2cc(C(=O)N[C@H](C)c3cnc(C)cn3)cc(-c3ncc(C)s3)c2)cn1` [Example 131, N-[(1R)-1-(5-methylpyrazin-2-yl)ethyl]-3-[(6-methylpyridin-3-yl)oxy]-5-(5-methyl-1,3-thiazol-2-yl)benzamide], the IC50 on human P2X3 receptor (setting [1]) was 134 nM; at human P2X2/3 receptor, 730 nM.
With `COC(C)(C)COc1cc(C(=O)N[C@H](C)c2cnc(C(F)(F)F)nc2)cc(-c2ncc(Cl)s2)c1` [Example 116, 3-(5-Chloro-1,3-thiazol-2-yl)-5-(2-methoxy-2-methylpropoxy)-N-{(1R)-1-[2-(trifluoromethyl)pyrimidin-5-yl]ethyl}benzamide], the IC50 on human P2X3 receptor (setting [1]) is 210 nM; at human P2X2/3 receptor, 6430 nM.
Take `Cc1cnc(-c2cc(OC3CC4(C3)CN(C(=O)OC(C)(C)C)C4)cc(C(=O)N[C@H](C)c3cnc(C(F)(F)F)nc3)c2)s1` [Example 146, tert-butyl 6-[3-(5-methyl-1,3-thiazol-2-yl)-5-({(1R)-1-[2-(trifluoromethyl)pyrimidin-5-yl]ethyl}carbamoyl)phenoxy]-2-azaspiro[3.3]heptane-2-carboxylate]: the IC50 at human P2X3 receptor (setting [1]) amounted to 45 nM; on human P2X2/3 receptor it was 159 nM.
As to `Cc1cnc(-c2cc(OCC34CC(CO3)N(C(=O)OC(C)(C)C)C4)cc(C(=O)N[C@H](C)c3cnc(C(F)(F)F)nc3)c2)s1` (stereo partly drawn) [Example 404, tert-butyl 1-{[3-(5-methyl-1,3-thiazol-2-yl)-5-({(1R)-1-[2-(trifluoromethyl)pyrimidin-5-yl]ethyl}carbamoyl)phenoxy]methyl}-2-oxa-5-azabicyclo[2.2.1]heptane-5-carboxylate], the IC50 at human P2X3 receptor (setting [1]) was 44 nM; on human P2X2/3 receptor, 533 nM.
Taken in the same sequence, the figures for `Cc1cnc(-c2cc(OC[C@@H]3CCOC3)cc(C(=O)N[C@H](C)c3cnc(C(F)(F)F)nc3)c2)s1` [Example 73, 3-(5-Methyl-1,3-thiazol-2-yl)-5-[(3R)-tetrahydrofuran-3-ylmethoxy]-N-[(1R)-1-[2-(trifluoromethyl)pyrimidin-5-yl]ethyl]benzamide] were 4 nM and 101 nM.
As to `COCCOc1cc(C(=O)N[C@H](C)c2cnc(C)nc2)cc(-c2ncc(C)s2)c1` [Example 136, 3-(2-Methoxyethoxy)-N-[(1R)-1-(2-methylpyrimidin-5-yl)ethyl]-5-(5-methyl-1,3-thiazol-2-yl)benzamide], the IC50 at human P2X3 receptor (setting [1]) is 196 nM; at human P2X2/3 receptor, 2780 nM.
Taken in the same sequence, the figures for `Cc1cnc([C@@H](C)NC(=O)c2cc(Oc3nnc(C)s3)cc(-c3ncc(C)s3)c2)cn1` [Example 109, N-[(1R)-1-(5-Methylpyrazin-2-yl)ethyl]-3-[(5-methyl-1,3,4-thiadiazol-2-yl)oxy]-5-(5-methyl-1,3-thiazol-2-yl)benzamide] were 235 nM and 2410 nM.
In the same order, the values of `Cc1ccc([C@@H](C)NC(=O)c2cc(Oc3nccs3)cc(-c3ncc(C)s3)c2)cn1` [Example 114, N-[(1R)-1-(6-Methylpyridin-3-yl)ethyl]-3-(5-methyl-1,3-thiazol-2-yl)-5-(1,3-thiazol-2-yloxy)benzamide] are 38 nM and 414 nM.
Taken in the same sequence, the figures for `Cc1cnc(-c2cc(O[C@@H]3CCOC3)cc(C(=O)N[C@H](C)c3cnc(C(F)F)nc3)c2)s1` [Example 153, N-{(1R)-1-[2-(difluoromethyl)pyrimidin-5-yl]ethyl}-3-(5-methyl-1,3-thiazol-2-yl)-5-[(3R)-tetrahydrofuran-3-yloxy]benzamide] were 27 nM and 304 nM.
On to `Cc1cnc(CNC(=O)c2cc(OC[C@@H]3CCOC3)cc(-c3ncc(C)s3)c2)cn1` [Example 76, N-[(5-Methylpyrazin-2-yl)methyl]-3-(5-methyl-1,3-thiazol-2-yl)-5-[(3R)-tetrahydrofuran-3-ylmethoxy]benzamide], for which the IC50 came to 201 nM at human P2X3 receptor (setting [1]) and 5790 nM at human P2X2/3 receptor.
For the molecule `Cc1cnc(-c2cc(O[C@H]3CCOC3)cc(C(=O)NC(C)c3ncc(Cl)cc3F)c2)s1` (stereo partly drawn) [Example 134, N-[1-(5-Chloro-3-fluoropyridin-2-yl)ethyl]-3-(5-methyl-1,3-thiazol-2-yl)-5-[(3S)-tetrahydrofuran-3-yloxy]benzamide], the IC50 on human P2X3 receptor (setting [1]) worked out at 15 nM; at human P2X2/3 receptor, 210 nM.
Taken in the same sequence, the figures for `Cc1ccc([C@@H](C)NC(=O)c2cc(O[C@H]3CCOC3)cc(-c3ncc(C)s3)c2)nn1` [Example 25, N-[(1R)-1-(6-Methylpyridazin-3-yl)ethyl]-3-(5-methyl-1,3-thiazol-2-yl)-5-[(3S)-tetrahydrofuran-3-yloxy]benzamide] were 39 nM and 975 nM.
In the same order, the values of `Cc1cnc(-c2cc(OCC3CCN(C)CC3)cc(C(=O)N[C@H](C)c3cnc(C(F)(F)F)nc3)c2)s1` [Example 380, 3-[(1-methylpiperidin-4-yl)methoxy]-5-(5-methyl-1,3-thiazol-2-yl)-N-{(1R)-1-[2-(trifluoromethyl)pyrimidin-5-yl]ethyl}benzamide] are 32 nM and 2880 nM.
In the case of `Cc1cnc(-c2cc(OC[C@@]3(F)CCCNC3)cc(C(=O)N[C@H](C)c3cnc(C(F)(F)F)nc3)c2)s1` [Example 354], the IC50 on human P2X3 receptor (setting [1]) was found to be 25 nM; at human P2X2/3 receptor it was 1030 nM.
As for `Cc1cnc(-c2cc(OC3CCN(CC(F)F)CC3)cc(C(=O)N[C@H](C)c3cnc(C(F)(F)F)nc3)c2)s1` [Example 304], the values for the IC50 at human P2X3 receptor and at human P2X2/3 receptor were 7 nM and 27 nM, respectively.
For `Cc1cnc(-c2cc(OC34CCN(CC3)CC4)cc(C(=O)N[C@H](C)c3cnc(C(F)(F)F)nc3)c2)s1` [Example 149], the IC50 at human P2X3 receptor (setting [1]) was 21 nM; on human P2X2/3 receptor, 936 nM.
Taken in the same sequence, the figures for `CC(C)c1cnc(-c2cc(OC[C@H]3CCOC3)cc(C(=O)N[C@H](C)c3ccc(C(F)(F)F)nn3)c2)s1` [Example 298, 3-[5-(propan-2-yl)-1,3-thiazol-2-yl]-5-[(3S)-tetrahydrofuran-3-ylmethoxy]-N-{(1R)-1-[6-(trifluoromethyl)pyridazin-3-yl]ethyl}benzamide] were 62 nM and 781 nM.
Regarding `C#CCOc1cc(C(=O)N[C@H](C)c2cnc(C)cn2)cc(-c2ncc(C)s2)c1` [Example 34, N-[(1R)-1-(5-Methylpyrazin-2-yl)ethyl]-3-(5-methyl-1,3-thiazol-2-yl)-5-(prop-2-yn-1-yloxy)benzamide], the results for the IC50 on human P2X3 receptor (setting [1]) and at human P2X2/3 receptor were 111 nM and 2120 nM, respectively.
Taken in the same sequence, the figures for `Cc1ccc([C@@H](C)NC(=O)c2cc(O[C@H]3CCOC3)cc(-c3ncc(C)s3)c2)cn1` [Example 30, N-[(1R)-1-(6-methylpyridin-3-yl)ethyl]-3-(5-methyl-1,3-thiazol-2-yl)-5-[(3S)-tetrahydrofuran-3-yloxy]benzamide] were 38 nM and 485 nM.

Values taken from patent US10174016B2 (BAYER AKTIENGESELLSCHAFT, priority 2014, dated 2019).
